Results on 11 compounds are retold here after patent US20050176655A1, “Novel macrolide derivatives havaing effect of potentiating antifungal activity” (priority 2002, published 2005).

Test [1] concerns Candida albicans ATCC 64548. As to the kind of experiment: Paper disk method, enhancing action for activities of azole antifungal agents. The format is cell-based. To be noted: 24 hours; for Inhibition activity (inhibition ring mm) C. albicans ATCC 64548 GYM / Transparency of the inhibition ring C. albicans ATCC 64548 GYM: miconazole 0.03 μg/ml; for Inhibition activity (inhibition ring mm) C. albicans ATCC 64548 GYF / Transparency of the inhibition ring C. albicans ATCC 64548 GYF: fluconazole 0.5 μg/ml. Here is the method: (§1) Test organisms used were Candida albicans ATCC 64548, fluconazole resistant Candida albicans ATCC 64550 and Aspergillus niger ATCC 6275. Candida spp. were cultured in Waksman broth (glucose 2.0%, peptone 0.5%, dry yeast 0.3%, meat extract 0.5%, NaCl 0.5% and CaCO3 0.3%, pH 7.0) at 27° C. for 40 hours, then 0.1% thereof was inoculated on GY agar medium (glucose 1.0%, yeast extract 0.5% and agar 0.8%, pH 6.0). Spore suspension 0.2% of Aspergillus niger ATCC 6275 was inoculated on GY agar medium.
(§2) Azole antifungal agents used were miconazole (Sigma Inc., the U.S.) and fluconazole (ICN Pharmaceuticals, Inc., the U.S.), and were added at concentrations without affecting growth on each test organisms follows.
Candida albicans ATCC 64548: miconazole 0.03 μg/ml or fluconazole 0.5 μg/ml.
(§3) In the above medium, a medium added with miconazole to GY medium (control) is designated as GYM, and a medium added with fluconazole is designated as GYF. Activities were assessed by means of paper disk method (thickness: 8 mm, ADVANTEC MFS INC., Japan). Diameter of inhibition ring is expressed with mm unit after culturing Candida spp. for 24 hours and Aspergillus niger ATCC 6275 for 48 hours. Transparency of the inhibition ring is assessed with 5 degrees of A, B, C, D and E (transparence<A<B<C<D<E<opaque).

In test [2] the test system is Aspergillus niger ATCC 6275. Described as above. The format is cell-based. The conditions noted are these: 48 hours; for Inhibition activity (inhibition ring mm) A. niger ATCC 6275 GYF / Transparency of the inhibition ring A. niger ATCC 6275 GYF: fluconazole 10 μg/ml; for Inhibition activity (inhibition ring mm) A. niger ATCC 6275 GY / Transparency of the inhibition ring A. niger ATCC 6275 GY: GY medium (control, no azole). As to the method: as §1, §2
Aspergillus niger ATCC 6275: miconazole 0.1 μg/ml or fluconazole 10 μg/ml.
as §3

The mark [3] stands for this setting: 100 μg/8 mm disk, GYM, miconazole 0.1 μg/ml.

As for “2′,4″,13-Tri-O-anhydro-pseudoerythromycin A 6,9-hemiketal [Compound 719]”, the “Inhibition activity (inhibition ring mm) C. albicans ATCC 64548 GYM” value in test [1] (10 μg/8 mm disk) worked out at 9 mm; in test [1] (50 μg/8 mm disk), 10 mm; in test [1] (100 μg/8 mm disk), 13 mm. The “Transparency of the inhibition ring C. albicans ATCC 64548 GYM” value in test [1] (10 μg/8 mm disk), in test [1] (50 μg/8 mm disk) and in test [1] (100 μg/8 mm disk) was “E (Growth of test organism was inhibited 35% or less.)” in each case.
On to `CCC1OC(=O)C(C)C(OC2CC(C)(OC)C(O)C(C)O2)C(C)C(OC2OC(C)CC(N(C)C)C2O)C(C)(O)CC(C)C(=NOCC=CCNCCN)C(C)C(O)C1(C)O` (stereo not drawn) [Compound 763, 9(E)-4-(aminoethylamino)-2-butenyloxime-erythromycin A], for which, in test [1] (50 μg/8 mm disk), the “Inhibition activity (inhibition ring mm) C. albicans ATCC 64548 GYF” value worked out at 10 mm; the “Transparency of the inhibition ring C. albicans ATCC 64548 GYF” value is “D (Growth of test organism was inhibited 35% or more and 55% or less.)”; the “Inhibition activity (inhibition ring mm) C. albicans ATCC 64548 GYM” value came to 16 mm; the “Transparency of the inhibition ring C. albicans ATCC 64548 GYM” value is “C (Growth of test organism was inhibited 55% or more and 75% or less.)”. Moreover, in test [2] (10 μg/8 mm disk), the “Inhibition activity (inhibition ring mm) A. niger ATCC 6275 GYF” value is listed as 12 mm and the “Transparency of the inhibition ring A. niger ATCC 6275 GYF” value was “E (Growth of test organism was inhibited 35% or less.)”. In test [2] (50 μg/8 mm disk), the “Inhibition activity (inhibition ring mm) A. niger ATCC 6275 GYF” value is reported as 15 mm and the “Transparency of the inhibition ring A. niger ATCC 6275 GYF” value is on record as “E (Growth of test organism was inhibited 35% or less.)”.
Take `CCC1OC(=O)C(C)C(OC2CC(C)(OC)C(O)C(C)O2)C(C)C(OC2OC(C)CC(N(C)CC=CCN(C)C3CC(C)OC(OC4C(C)C(OC5CC(C)(OC)C(O)C(C)O5)C(C)C(=O)OC(CC)C(C)(O)C(O)C(C)C(=O)C(C)CC4(C)O)C3O)C2O)C(C)(O)CC(C)C(=O)C(C)C(O)C1(C)O` (stereo not drawn) [Compound 757, 3′-de-N-methyl-3′-N-{4-amino-(3′-de-N-methyl-erythromycin A)}-2(E) -butenyl-erythromycin A]: in test [1] (100 μg/8 mm disk), the “Inhibition activity (inhibition ring mm) C. albicans ATCC 64548 GYF” value was 17 mm; the “Transparency of the inhibition ring C. albicans ATCC 64548 GYF” value was “E (Growth of test organism was inhibited 35% or less.)”; the “Inhibition activity (inhibition ring mm) C. albicans ATCC 64548 GYM” value worked out at 18 mm; the “Transparency of the inhibition ring C. albicans ATCC 64548 GYM” value was “D (Growth of test organism was inhibited 35% or more and 55% or less.)”. Also, in test [2] (50 μg/8 mm disk), the “Inhibition activity (inhibition ring mm) A. niger ATCC 6275 GY” value is 10 mm and the “Transparency of the inhibition ring A. niger ATCC 6275 GY” value is “E (Growth of test organism was inhibited 35% or less.)”.
For the compound `CCC(O)C(C)(O)C1OC(=O)C(C)C(OC2CC(C)(OC)C(O)C(C)O2)C(C)C(OC2OC(C)CC(N(C)CCN(C)C3CC(C)OC(OC4C(C)C(OC5CC(C)(OC)C(O)C(C)O5)C(C)C(=O)OC(C(C)(O)C(O)CC)C(C)C5=C(C)CC4(C)O5)C3O)C2O)C2(C)CC(C)=C(O2)C1C` (stereo not drawn) [Compound 741, 3′-de-N-methyl-3′-N-{-amino-(3′-de-N-methyl-anhydro-pseudoerythromycin A 6,9-hemiketal)}ethyl-anhydro-pseudoerythromycinA 6,9-hemiketal], in test [1] (100 μg/8 mm disk), the “Inhibition activity (inhibition ring mm) C. albicans ATCC 64548 GYM” value is listed as 14 mm; the “Transparency of the inhibition ring C. albicans ATCC 64548 GYM” value is “D (Growth of test organism was inhibited 35% or more and 55% or less.)”.
Turning to `CCC1OC(=O)C(C)C(OC2CC(C)(OC)C(O)C(C)O2)C(C)C(OC2OC(C)CC(N(C)C)C2O)C(C)(O)CC(C)C(=NOCC=CCNCCNCC=CCON=C2C(C)CC(C)(O)C(OC3OC(C)CC(N(C)C)C3O)C(C)C(OC3CC(C)(OC)C(O)C(C)O3)C(C)C(=O)OC(CC)C(C)(O)C(O)C2C)C(C)C(O)C1(C)O` (stereo not drawn) [Compound 761], in test [1] (100 μg/8 mm disk), the “Inhibition activity (inhibition ring mm) C. albicans ATCC 64548 GYM” value is 14 mm and the “Transparency of the inhibition ring C. albicans ATCC 64548 GYM” value is listed as “E (Growth of test organism was inhibited 35% or less.)”.
`CCC1OC(=O)C(C)C(OC2CC(C)(OC)C(O)C(C)O2)C(C)C(OC2OC(C)CC(N(C)C)C2O)C(C)(O)CC(C)C(=NOCC=CCON=C2C(C)CC(C)(O)C(OC3OC(C)CC(N(C)C)C3O)C(C)C(OC3CC(C)(OC)C(O)C(C)O3)C(C)C(=O)OC(CC)C(C)(O)C(O)C2C)C(C)C(O)C1(C)O` (stereo not drawn) [Compound 759, 9(E)-4-{9(E)-oxime-erythromycin A}-2-butenyloxime-erythromycin A]: in test [1] (100 μg/8 mm disk), the “Inhibition activity (inhibition ring mm) C. albicans ATCC 64548 GYM” value is given as 13 mm; the “Transparency of the inhibition ring C. albicans ATCC 64548 GYM” value is “D (Growth of test organism was inhibited 35% or more and 55% or less.)”.
Consider `C=CCCON=C1C(C)CC(C)(O)C(OC2OC(C)CC(N(C)C)C2O)C(C)C(OC2CC(C)(OC)C(O)C(C)O2)C(C)C(=O)OC(CC)C(C)(O)C(O)C1C` (stereo not drawn) [Compound 769, 9(E)-3-butenyloxime-erythromycin A], for which, in test [1] (100 μg/8 mm disk), the “Inhibition activity (inhibition ring mm) C. albicans ATCC 64548 GYM” value was found to be 14 mm and the “Transparency of the inhibition ring C. albicans ATCC 64548 GYM” value is on record as “E (Growth of test organism was inhibited 35% or less.)”. For the same compound, in test [2] (10 μg/8 mm disk), the “Inhibition activity (inhibition ring mm) A. niger ATCC 6275 GYF” value was 11 mm and the “Transparency of the inhibition ring A. niger ATCC 6275 GYF” value was “E (Growth of test organism was inhibited 35% or less.)”. In addition, in test [2] (50 μg/8 mm disk), the “Inhibition activity (inhibition ring mm) A. niger ATCC 6275 GY” value came to 10 mm, the “Transparency of the inhibition ring A. niger ATCC 6275 GY” value is “E (Growth of test organism was inhibited 35% or less.)”, the “Inhibition activity (inhibition ring mm) A. niger ATCC 6275 GYF” value was determined as 16 mm and the “Transparency of the inhibition ring A. niger ATCC 6275 GYF” value was “E (Growth of test organism was inhibited 35% or less.)”.
As to `CCC1OC(=O)C(C)C(OC2CC(C)(OC)C(O)C(C)O2)C(C)C(OC2OC(C)CC(N(C)C)C2O)C(C)(O)CC(C)C(=NOCC=CCN2CCNCC2)C(C)C(O)C1(C)O` (stereo not drawn) [Compound 762], in test [1] (50 μg/8 mm disk), the “Inhibition activity (inhibition ring mm) C. albicans ATCC 64548 GYM” value was determined as 13 mm; the “Transparency of the inhibition ring C. albicans ATCC 64548 GYM” value was “D (Growth of test organism was inhibited 35% or more and 55% or less.)”. In test [2] (10 μg/8 mm disk), the “Inhibition activity (inhibition ring mm) A. niger ATCC 6275 GYF” value is reported as 14 mm and the “Transparency of the inhibition ring A. niger ATCC 6275 GYF” value is “E (Growth of test organism was inhibited 35% or less.)”. Further, in test [2] (50 μg/8 mm disk), the “Inhibition activity (inhibition ring mm) A. niger ATCC 6275 GYF” value was 15 mm and the “Transparency of the inhibition ring A. niger ATCC 6275 GYF” value is given as “E (Growth of test organism was inhibited 35% or less.)”.
As to `CCC1OC(=O)C(C)C(OC2CC(C)(OC)C(O)C(C)O2)C(C)C(OC2OC(C)CC(N(C)CCN(C)C3CC(C)OC(OC4C(C)C(OC5CC(C)(OC)C(O)C(C)O5)C(C)C(=O)OC(CC)C(C)(O)C(O)C(C)C(=O)C(C)CC4(C)OC)C3O)C2O)C(C)(OC)CC(C)C(=O)C(C)C(O)C1(C)O` (stereo not drawn) [Compound 753, 3′-de-N-methyl-3′-N-{2-amino-(3′-de-N-methyl-clarythromycin A)}ethyl-clarythromycin], in test [1] (10 μg/8 mm disk), the “Inhibition activity (inhibition ring mm) C. albicans ATCC 64548 GYM” value was 17 mm; the “Transparency of the inhibition ring C. albicans ATCC 64548 GYM” value was “C (Growth of test organism was inhibited 55% or more and 75% or less.)”. Further, in test [1] (50 μg/8 mm disk), the “Inhibition activity (inhibition ring mm) C. albicans ATCC 64548 GYM” value is 22 mm; the “Transparency of the inhibition ring C. albicans ATCC 64548 GYM” value is “C (Growth of test organism was inhibited 55% or more and 75% or less.)”. Further, in test [2] (setting [3]), the “Inhibition activity (inhibition ring mm) A. niger ATCC 6275 GYM” value is 13 mm and the “Transparency of the inhibition ring A. niger ATCC 6275 GYM” value is listed as “E (Growth of test organism was inhibited 35% or less.)”.
In the case of `CCC1OC(=O)C(C)C(OC2CC(C)(OC)C(O)C(C)O2)C(C)C(OC2OC(C)CC(N(C)CC=CCN(C)C3CC(C)OC(OC4C(C)C(OC5CC(C)(OC)C(O)C(C)O5)C(C)C(=O)OC(CC)C(C)(O)C(O)C(C)C(=O)C(C)CC4(C)OC)C3O)C2O)C(C)(OC)CC(C)C(=O)C(C)C(O)C1(C)O` (stereo not drawn) [Compound 758, 3′-de-N-methyl-3′-N-{4-amino-(3′-de-N-methyl-clarythromycin A)}-2(E)-butenyl-clarythromycin A], in test [1] (10 μg/8 mm disk), the “Inhibition activity (inhibition ring mm) C. albicans ATCC 64548 GYM” value came out at 11 mm and the “Transparency of the inhibition ring C. albicans ATCC 64548 GYM” value is reported as “E (Growth of test organism was inhibited 35% or less.)”. For the same compound, in test [1] (50 μg/8 mm disk), the “Inhibition activity (inhibition ring mm) C. albicans ATCC 64548 GYM” value amounted to 12 mm; the “Transparency of the inhibition ring C. albicans ATCC 64548 GYM” value was “D (Growth of test organism was inhibited 35% or more and 55% or less.)”. Further, in test [1] (100 μg/8 mm disk), the “Inhibition activity (inhibition ring mm) C. albicans ATCC 64548 GYF” value came out at 15 mm and the “Transparency of the inhibition ring C. albicans ATCC 64548 GYF” value was “E (Growth of test organism was inhibited 35% or less.)”.
For the compound `CCC1OC(=O)C(C)C(OC2CC(C)(OC)C(O)C(C)O2)C(C)C(OC2OC(C)CC(N(C)C)C2O)C(C)(O)CC(C)C(=NOCCCCON=C2C(C)CC(C)(O)C(OC3OC(C)CC(N(C)C)C3O)C(C)C(OC3CC(C)(OC)C(O)C(C)O3)C(C)C(=O)OC(CC)C(C)(O)C(O)C2C)C(C)C(O)C1(C)O` (stereo not drawn) [Compound 764, 9(E)-4-{9(E)-oxime-erythromycin A}-2(E)buthyloxime-erythromycin A], in test [1] (50 μg/8 mm disk), the “Inhibition activity (inhibition ring mm) C. albicans ATCC 64548 GYM” value turned out to be 9 mm and the “Transparency of the inhibition ring C. albicans ATCC 64548 GYM” value is given as “E (Growth of test organism was inhibited 35% or less.)”.
